Consider six compounds from US20160244486A1, “AB Modulating Peptides” (ALZHYME PTY LTD, priority 2013, published 2016).

pKd: −log10 of the molar value. Square brackets hold non-standard residues; d marks the D form. Ends that are not written are not given here. Peptide text beside a SMILES is read from it. ξ: configuration not given here. ξT = CC(O)C(N)C(=O)O

Data set [1] in a line: In vitro peptide stability in 10% rat brain homogenate, RP-HPLC quantification. The format is in vitro ADME. To be noted: 37° C. The procedure: Peptides were prepared as a 1 mM solution in phosphate-buffered saline. 20 μl of the peptide solution was diluted in 10% rat brain homogenate (in 1× phosphate-buffered saline and 0.5% Triton X-100).
The solution was incubated at 37° C. for different times, and the reaction was stopped by adding the Complete mixture of protease inhibitors (Roche Molecular Biochemicals, Mannheim, Germany). For ANA5 and RI-ANA5, the bulk of the brain proteins (but not the peptides) were precipitated in cold methanol (1:4 (v/v) mixture/MeOH) for 1 hr at −20° C. The precipitated proteins were pelleted by centrifugation at 10,000 g for 10 min at 4° C. The supernatant containing the peptide was concentrated five times under vacuum and separated by RP-HPLC. Due to recovery issues with the longer ANA1 and RI-ANA1 peptides, samples were instead lyophilized and then reconstituted in a TFA solution, prior to separation by RP-HPLC.
The area of the peak (UV absorbance at 205 nm) corresponding to the intact peptide was measured and compared with an equivalent sample incubated in phosphate-buffered saline.
(iii) In vitro assay of peptide stability—Peptides were prepared as a 1 mM solution in PBS. 20 μl of the peptide solution was diluted in 10% rat brain homogenate (in PBS+0.5% Triton X-100). The solution was incubated at 37° C. for different times, and the reaction was stopped by adding the Complete mixture of protease inhibitors (Roche Molecular Biochemicals, Mannheim, Germany). For ANA5 and 9M S.A., the bulk of the brain proteins (but not the peptides) were precipitated in cold methanol (1:4 (v/v) mixture/methanol) for 1 h at −20° C. The precipitated proteins were pelleted by centrifugation (10.000 g, 10 min, 4° C.). The supernatant containing the peptide was concentrated five times under vacuum and separated by reversed-phase HPLC (RP-HPLC). Due to recovery issues with the longer ANA1 and RI-ANA1 peptides, samples were instead lyophilized, extracted in TFA, centrifuged to remove insoluble material and separated by RP-HPLC. The area of the peak (UV absorbance at 205 nm) corresponding to the intact peptide was measured and compared with an equivalent sample incubated in PBS.
Peptides were prepared as 1 mM solutions in PBS and diluted in 10% rat brain homogenate. Solutions were incubated at 37° C. for different times, and the reactions were stopped by addition of protease inhibitors. Samples were processed as described herein in the General Materials/Methods, separated by RP-HPLC and the level of intact peptide was determined at each time point.

The target in data set [2] is oligomeric Aβ42 (human synthetic Aβ42, pre-formed oligomers) (human) (UniProt P05067). The experiment in a line: SPR (Biacore 3000), 15M S.A. immobilised on CM5, oAβ42 injected; 1:1 binding model with drifting baseline; overall estimate across the oligomer mixture.
Sequence of UniProt P05067 (P05067 672-713 limits assumed): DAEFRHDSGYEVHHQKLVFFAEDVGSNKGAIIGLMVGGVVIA
Another data set has as its system amyloid plaques. The data set can be described thus: Ex vivo staining of amyloid plaques in brain tissue sections. To be noted: brain tissue from 8 month old 5× FAD AD model mice. The procedure: (x) Immunohistochemistry—Brains were obtained from 8 month old 5× FAD AD model mice Oakley, F-F et al (2006) or age-matched non-transgenic controls and post-fixed and embedded in the freezing medium as described in Drummond, E. S. et al (2013). Serial sagittal cryosections were cut at a thickness of 10 μm. Positive control staining for amyloid was performed using Thioflavin S (ThioS) as described in Youmans, K. L, et al (2012). After the removal of the freezing medium by serial changes of TBS pH 7.4, the slide was incubated for 1 h at room temperature in blocking buffer (10% goat serum in TBS). The slides were then stained with 1 μM TMR-labelled 15M S.A. peptide in 2% goat-serum-PBS for 2 hours at room temperature. Excess unbound peptide was removed prior to mounting by extensive washing with TBS. The coverslip was mounted using Prolong Gold mounting media (Life Technologies).
We investigated whether TMR-labelled 15M S.A. could be used to stain amyloid plaques ex vivo using brain tissue sections from AD model mice, in comparison with Thioflavin S (Thio S), which binds mature amyloid deposits and readily detects these plaques.

Regarding “TNPNRRNRTPQMLKR [ANA1, Thr-Asn-Pro-Asn-Arg-Arg-Asn-Arg-Thr-Pro-Gln-Met-Leu-Lys-Arg]”, the intact peptide amount is 25.8 µg in data set [1] (time 0 min); 25.78 µg in data set [1] (time 0 min, listed as 15mer); 5.6 µg in data set [1] (time 15 min); 5.55 µg in data set [1] (time 15 min, listed as 15mer); 0.03 µg in data set [1] (time 30 min); “trace amounts” in data set [1] (time 30 min, listed as 15 mer). Besides, the intact peptide amount in data set [1] (time 30 min, listed as 15mer) stood at 0.03 µg; in data set [1] (time 300 min), 0.02 µg.
Regarding “RI-ANA1 (Arg-Lys-Leu-Met-Gln-Pro-Thr-Arg-Asn-Arg-Arg-Asn-Pro-Asn-Thr, all D-amino acids) (peptide)”, the pKd in data set [2] was 4.96.
On to `CSCC[C@@H](NC(=O)[C@@H](CC(C)C)NC(=O)[C@@H](CCCCN)NC(=O)[C@H](N)CCCNC(=N)N)C(=O)N[C@H](CCC(N)=O)C(=O)N1CCC[C@@H]1C(=O)NC(C(=O)N[C@H](CCCNC(=N)N)C(=O)N[C@H](CC(N)=O)C(=O)N[C@H](CCCNC(=N)N)C(=O)N[C@H](CCCNC(=N)N)C(=O)N[C@H](CC(N)=O)C(=O)N1CCC[C@@H]1C(=O)N[C@H](CC(N)=O)C(=O)NC(C(=O)O)C(C)O)C(C)O` (stereo partly drawn) [RI-ANA1, Arg-Lys-Leu-Met-Gln-Pro-Thr-Arg-Asn-Arg-Arg-Asn-Pro-Asn-Thr] (H-[dR][dK][dL][dM][dQ][dP][ξT][dR][dN][dR][dR][dN][dP][dN][ξT]-OH; N-terminus and C-terminus assumed), for which the intact peptide amount in data set [1] (time 0 min) was found to be 29.8 µg; in data set [1] (time 0 min, listed as 15M S.A.) it was 29.80 µg; in data set [1] (time 15 min), 27.8 µg; in data set [1] (time 15 min, listed as 15M S.A.) it was 27.80 µg; in data set [1] (time 30 min), 29.4 µg; in data set [1] (time 30 min, listed as 15M S.A.), 29.40 µg. The intact peptide amount stood at 33.5 µg in data set [1] (time 300 min) and 33.50 µg in data set [1] (time 300 min, listed as 15M S.A.).
As for Thioflavin S [Thio S], the “staining of amyloid deposits” value in the data set with amyloid plaques was “extensive plaques”.
Consider “NRTPQMLKR [ANA5, Asn-Arg-Thr-Pro-Gln-Met-Leu-Lys-Arg]”, for which the intact peptide amount in data set [1] (time 0 min) is 12 µg; in data set [1] (time 0 min, listed as 9mer) it was 12.00 µg; in data set [1] (time 15 min), 0.47 µg; in data set [1] (time 30 min), 0 µg; in data set [1] (time 30 min, listed as 9 mer) it was “none”; in data set [1] (time 30 min, listed as 9mer) it was 0 µg. Moreover, the intact peptide amount in data set [1] (time 300 min) was 0 µg.
As to `CSCC[C@@H](NC(=O)[C@@H](CC(C)C)NC(=O)[C@@H](CCCCN)NC(=O)[C@H](N)CCCNC(=N)N)C(=O)N[C@H](CCC(N)=O)C(=O)N1CCC[C@@H]1C(=O)N[C@@H](C(=O)N[C@H](CCCNC(=N)N)C(=O)N[C@H](CC(N)=O)C(=O)O)[C@H](C)O` [RI-ANA5, Arg-Lys-Leu-Met-Gln-Pro-Thr-Arg-Asn], the intact peptide amount was found to be 14 µg in data set [1] (time 0 min); 14.11 µg in data set [1] (time 0 min, listed as 9M S.A.); 12.35 µg in data set [1] (time 15 min); 12.35 µg in data set [1] (time 30 min); 12.5 µg in data set [1] (time 300 min); 12.51 µg in data set [1] (time 300 min, listed as 9M S.A.).
